The values below come from patent publication US8114897B2, “Pesticidal composition and method for controlling a pest” (priority 2007, dated 2012).

Series [1] concerns cockroaches Blattella germanica. The experiment in a line: Referential Test Example: spray test on hidden cockroaches, mortality rate. The class given is in vivo. Particulars: 4.2 mL test formulation solution (ingredient concentrations % (w/v) per Table 2, in diethylene glycol monomethylether) sprayed in 70 cm cubic glass box; 10 cockroaches; transferred after 10 minutes; counted after 3 days; average of duplicate. From the text: Suitable amounts of the compound A and either (E)-N^1-[(6-chloro-3-pyridyl)methyl]-N^2-cyano-N^1-methylacetamidine (general name: acetamiprid, hereinafter, referred to as N-cyanoacetamidine compound) or 1-(6-chloro-3-pyridylmethyl)-N-nitroimidazolidin-2-ylidene amine (general name: imidacloprid, hereinafter referred to as nitroimidazoline compound) are mixed with diethylene glycol monomethylether, to give test formulation solutions containing the compound A and either the N-cyano acetamidine or nitroimidazoline compound at particular concentrations (see Table 2).
A triangular prism wooden container (regular triangle having a base of 3.5 cm and a height of 15 cm) containing 10 cockroaches Blattella germanica (5 males and 5 females) hidden therein was placed in the bottom center of a cubic glass box having a base of 70 cm. 4.2 Milliliters of the test formulation solution was sprayed on the glass box with a spray gun. In 10 minutes after the spraying, the cockroaches were transferred into a plastic container containing food and water and left there for 3 days. The number of live cockroaches was then counted, to give a mortality rate.

For series [2] the test system is unchanged. In words: Test Example: spray test on hidden cockroaches, mortality rate. Particulars: 4.2 mL test formulation solution (ingredient concentrations % (W/V) per Table 1, in diethylene glycol monomethylether) sprayed in 70 cm cubic glass box; 10 cockroaches; transferred after 10 minutes; counted after 3 days; average of duplicate. The class given is in vivo. From the text:
Suitable amounts of 4-methoxymethyl-2,3,5,6-tetrafluorobenzyl(1R)-trans-3-(2-cyano-1-propenyl)-2,2-dimethylcyclopropanecarboxylate (isomer ratio, based on double bond, Z/E: approximately 2/1) (hereinafter, referred to as compound A) and/or clothianidin (manufactured by Sumika Takeda Agrochemicals Co.) are mixed with diethylene glycol monomethylether, to give a test formulation solution containing the compound A and/or clothianidin at particular concentrations (see Table 1).
A triangular prism wooden container (regular triangle having a base of 3.5 cm and a height of 15 cm) containing 10 cockroaches Blattella germanica (5 males and 5 females) hidden therein was placed in the bottom center of a cubic glass box having a base of 70 cm square. 4.2 Milliliters of the test formulation solution was sprayed on the glass box with a spray gun. In 10 minutes after the spraying, the cockroaches were transferred into a plastic container containing food and water and left there for 3 days. The number of live cockroaches was then counted, to give a mortality rate.

With `C/C(=N\C#N)N(C)Cc1ccc(Cl)nc1` [compound 12, (E)-N^1-[(6-chloro-3-pyridyl)methyl]-N^2-cyano-N^1-methylacetamidine], the “Mortality rate (%)” value in series [1] was found to be 5%.

`O=[N+]([O-])NC1=NCCN1Cc1ccc(Cl)nc1` [compound 13, 1-(6-chloro-3-pyridylmethyl)-N-nitroimidazolidin-2-ylidene amine]: in series [1], the “Mortality rate (%)” value is reported as 15%. On to `COCc1c(F)c(F)c(COC(=O)[C@@H]2[C@@H](C=C(C)C#N)C2(C)C)c(F)c1F` [compound 7, 4-methoxymethyl-2,3,5,6-tetrafluorobenzyl(1R)-trans-3-(2-cyano-1-propenyl)-2,2-dimethylcyclopropanecarboxylate], for which the “Mortality rate (%)” value in series [2] and in series [1] was 5% in each case. `CN/C(=N\[N+](=O)[O-])NCc1cnc(Cl)s1` [compound 8, 1-(2-chloro-1,3-thiazolyl)methyl-3-methyl-2-nitroguanidine]: the “Mortality rate (%)” value in series [2] was 35%.
